Legend:
[1] = system: poly dG–poly dC (DNA, polymer) G/C; test: fluorimetric titration, Scatchard; details: Na+ (sodium cacodylate, I = 0.05 M); pH 7.0; apparent; per phosphate; n fixed at 0.2; dye 1.3–1.5 × 10^-7 M; per base
[2] = system: poly dA–poly dT (DNA, polymer) A/T; test: fluorimetric titration, Scatchard; details: Na+ (sodium cacodylate, I = 0.05 M); pH 7.0; apparent; per phosphate; n fixed at 0.2; dye 1.3–1.5 × 10^-7 M; per base
[3] = system: poly dGdC–poly dGdC (DNA, polymer) GC; test: fluorimetric titration, Scatchard; details: Na+ (sodium cacodylate, I = 0.05 M); pH 7.0; apparent; per phosphate; n fixed at 0.2; dye 1.3–1.5 × 10^-7 M; per base
[4] = system: poly rA–poly rU (RNA, polymer) A/U; test: fluorimetric titration, Scatchard; details: Na+ (sodium cacodylate, I = 0.05 M); pH 7.0; apparent; per phosphate; n fixed at 0.2; dye 1.3–1.5 × 10^-7 M; per base
[5] = system: poly rA–poly rU (RNA, polymer) A/U; test: UV thermal melting at 260 nm; details: Na+ (sodium cacodylate, I = 0.05 M), pH 7.0, polynucleotide 1–2 × 10^-5 M, per base
[6] = system: poly dAdT–poly dAdT (DNA, polymer) AT; test: UV thermal melting at 260 nm; details: Na+ (sodium cacodylate, I = 0.05 M); pH 7.0; r = [compound]/[phosphate] = 0.2; polynucleotide 1–2 × 10^-5 M; per base
[7] = system: poly rG–poly rC (RNA, polymer) G/C; test: fluorimetric titration, Scatchard; details: Na+ (sodium cacodylate, I = 0.05 M); pH 7.0; apparent; per phosphate; n fixed at 0.2; dye 1.3–1.5 × 10^-7 M; per base
[8] = system: poly dAdT–poly dAdT (DNA, polymer) AT; test: fluorimetric titration, Scatchard; details: Na+ (sodium cacodylate, I = 0.05 M); pH 7.0; apparent; per phosphate; n fixed at 0.2; dye 1.3–1.5 × 10^-7 M; per base
[9] = r = [compound]/[phosphate] = 0.2

Row | log Ks [1] | log Ks [2] | log Ks [3] | log Ks [4] | ΔTm [5, 9] [°C] | ΔTm [6] [°C] | log Ks [7] | log Ks [8] | ΔTm ([5]; r = 0.1, destabilised (−19.1) at r = 0.2) [°C] | SMILES
1 | 7.55 | 6.19 | 7.64 | 7.15 | 3.0 | 8.9 | 4.94 | 7.23 | – | CC(O)C[n+]1c(C=C2C=CN(CCC[N+](C)(C)CCC[N+](C)(C)CCCN3C=CC(=Cc4sc5ccccc5[n+]4CC(C)O)c4ccccc43)c3ccccc32)sc2ccccc21 (stereo not drawn)
2 | 6.63 | 5.89 | 7.20 | 6.14 | 0 | 10.7 | 4.79 | 6.98 | – | CC(O)C[n+]1c(C=C2C=CN(CCC[N+]3(C)CCC(CCCC4CC[N+](C)(CCCN5C=CC(=Cc6sc7ccccc7[n+]6CC(C)O)c6ccccc65)CC4)CC3)c3ccccc32)sc2ccccc21 (stereo not drawn)

The next lines start with the compound.

Row | SMILES | log Ks [1] | log Ks [2] | log Ks [3] | log Ks [4] | ΔTm [5, 9] [°C] | ΔTm [6] [°C] | log Ks [7] | log Ks [8] | ΔTm ([5]; r = 0.1, destabilised (−19.1) at r = 0.2) [°C]
3 | CC(O)C[n+]1c(C=C2C=CN(CCC[N+]3(C)CCC(CCCC4CC[N+](C)(CCCN5C=CC(=Cc6sc7ccccc7[n+]6CC(C)O)c6ccc(Cl)cc65)CC4)CC3)c3cc(Cl)ccc32)sc2ccccc21 (stereo not drawn) | 7.41 | 5.91 | 7.40 | 6.14 | 0.6 | 7.1 | 4.95 | 6.05 | –
4 | CC(O)C[n+]1c(C=C2C=CN(CCC[N+](C)(C)CCC[N+](C)(C)C)c3ccccc32)sc2ccccc21 (stereo not drawn) | 6.79 | 6.41 | 6.98 | 6.11 | 24.0 | 28.6 | 5.23 | 6.65 | –
5 | CC(O)C[n+]1c(C=C2C=CN(CCC[n+]3ccc(CCCc4cc[n+](CCCN5C=CC(=Cc6sc7ccccc7[n+]6CC(C)O)c6ccccc65)cc4)cc3)c3ccccc32)sc2ccccc21 (stereo not drawn) | 6.78 | 6.23 | 7.04 | 6.22 | – | – | 4.76 | 6.68 | 10.6

Reference: article PMC8391988 (2021)
